In PubChem BioAssay (NCI):
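How tested: cells in 96-well plates exposed to compound for 48 hours at five concentrations. Definition used: TGI = concentration required for complete inhibition of growth.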

Key:
Experiment in all cases: DTP human tumour cell line panel, 48 h
[1] = system: U251 CNS
[2] = system: SF-539 CNS
[3] = system: NCI-H23 lung
[4] = system: HL-60(TB) leukemia
[5] = system: LOX IMVI melanoma
[6] = system: ACHN renal
[7] = system: MOLT-4 leukemia
[8] = system: NCI-H226 lung
[9] = system: OVCAR-5 ovarian
[10] = system: T-47D breast

| Structure (SMILES) | TGI [1] | TGI [2] | TGI [3] | TGI [4] | TGI [5] | TGI [6] | TGI [7] | TGI [8] | TGI [9] | TGI [10] |
| --- | --- | --- | --- | --- | --- | --- | --- | --- | --- | --- |
| OCCN1CCN2C=C(C3CCCC4N(CCO)CCN34)CCC21 (stereo unspecified) | > 100 µM | > 92.2 µM | > 100 µM | 24 µM | > 100 µM | > 100 µM | 53.6 µM | > 100 µM | > 100 µM | – |
| COc1ccccc1/C=C1\NC(=S)N(/C=C2\C(=O)Oc3ccccc3C2=O)C1=O | > 100 µM | 96.7 µM | > 100 µM | > 100 µM | > 100 µM | > 100 µM | 72.6 µM | > 100 µM | > 100 µM | – |
| CSc1nc2c(ncn2C2OCC(O)C(O)C2O)c(=O)n1C (stereo unspecified) | > 100 µM | > 100 µM | > 100 µM | > 100 µM | > 100 µM | – | > 100 µM | > 100 µM | > 100 µM | – |
| CC(C)(C)c1cc2c(O)c(c1)Cc1cc(C(C)(C)C)cc(c1O)Cc1cc(C(C)(C)C)cc(c1O)Cc1cc(C(C)(C)C)cc(c1O)Cc1cc(C(C)(C)C)cc(c1O)Cc1cc(C(C)(C)C)cc(c1O)Cc1cc(C(C)(C)C)cc(c1O)Cc1cc(C(C)(C)C)cc(c1O)C2 | > 50 µM | > 50 µM | > 50 µM | > 50 µM | – | > 50 µM | > 50 µM | > 50 µM | > 50 µM | > 50 µM |
| O=C(O)CC(Sc1ccccc1)c1ccccc1 (stereo unspecified) | > 100 µM | – | > 100 µM | > 100 µM | > 100 µM | > 100 µM | > 100 µM | > 100 µM | > 100 µM | > 100 µM |
| COP(=O)(OC)C(O)CC(C)C (stereo unspecified) | > 100 µM | – | – | > 100 µM | – | > 100 µM | > 100 µM | > 100 µM | > 100 µM | > 100 µM |
| COC(=O)[C@H](Cc1ccc(OC(C)(C)C)cc1)N[C@H](C)C(=O)N[C@@H](Cc1ccccc1)C(=O)OCc1ccccc1 | > 100 µM | > 100 µM | > 100 µM | > 100 µM | > 100 µM | > 100 µM | 50 µM | > 100 µM | > 100 µM | – |
| O=C(O)c1ccc(C2SCc3nc4ccccc4n32)cc1 (stereo unspecified) | > 100 µM | > 100 µM | > 100 µM | > 100 µM | – | > 100 µM | > 100 µM | > 100 µM | > 100 µM | – |
| CCOC(=O)c1[nH]cc(C)c1-c1ccc2c(-c3ccccc3)nc3ccccc3n12 | 11.8 µM | 9.04 µM | 23.3 µM | – | 12.3 µM | 15.5 µM | 9.25 µM | 20.1 µM | 64.5 µM | 18.4 µM |
| CCOP(=O)(OCC)/C(C#N)=C/c1cnc[nH]1 | > 100 µM | > 100 µM | > 100 µM | > 100 µM | > 100 µM | > 100 µM | > 100 µM | > 100 µM | > 100 µM | – |
| C/C(=N\Nc1nc2cccnc2s1)c1ccccn1 | > 100 µM | 20.6 µM | 0.949 µM | > 100 µM | – | 1.07 µM | – | – | > 64.4 µM | – |
| C=C[C@]1(C)CCC2=C(CCC3C2(C)CCC[C@@]3(C)COC(C)=O)C1 (stereo partly specified) | 31.7 µM | 37.9 µM | 43.3 µM | 36.4 µM | 33.8 µM | 38.7 µM | 30.3 µM | 34.6 µM | 32.8 µM | – |
| COc1ccc(C2CC3(c4ccccc4)ON=C(c4ccccc4)N3c3ccccc3S2)cc1 (stereo unspecified) | > 100 µM | > 100 µM | > 100 µM | – | > 100 µM | > 100 µM | – | > 100 µM | > 100 µM | > 100 µM |
| Cc1c2ccncc2c(C)c2c1[nH]c1ccc(OCC(F)(F)F)cc12 | 2.98 µM | 3.16 µM | 3.14 µM | – | 3.09 µM | 2.88 µM | 3.26 µM | 3.24 µM | 2.86 µM | – |
| CC(=O)OC1COC(N2C(=O)C(=O)c3cc(Br)ccc32)C(OC(C)=O)C1OC(C)=O (stereo unspecified) | > 100 µM | > 100 µM | > 100 µM | – | > 100 µM | > 100 µM | > 100 µM | > 100 µM | – | – |
| O=Cc1ccc(CCl)cc1 | 35.4 µM | 31.6 µM | – | 23.9 µM | 28 µM | 54 µM | > 100 µM | – | 38.8 µM | – |
| CCCCCC/C=C1\CCC(CN2CCOCC2)C1=O (stereo unspecified) | 29.3 µM | 31.2 µM | 31.7 µM | 15.7 µM | 25.1 µM | 31.2 µM | 18.1 µM | 30 µM | 37.4 µM | – |
| O=C(OCc1ccccc1)N(CCCCN(CCCNCc1ccccc1)C(=O)OCc1ccccc1)CCCNCc1ccccc1 | – | – | 3.4 µM | 0.507 µM | – | 2.93 µM | – | 2.07 µM | 2.83 µM | 3.57 µM |
